PubChem BioAssay (NCI)
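Method: 48-hour compound exposure of cells in 96-well plates, five concentrations, linear interpolation of endpoints. GI50 = concentration required for 50% inhibition of growth. TGI: concentration producing complete growth inhibition.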

What was measured:
Assay in all cases: inhibition of tumour cell growth, NCI panel, 48 h
ACHN renal = tested on: ACHN renal
DU-145 prostate = tested on: DU-145 prostate
HCT-116 colon = tested on: HCT-116 colon
HL-60(TB) leukemia = tested on: HL-60(TB) leukemia
HS 578T breast = tested on: HS 578T breast
M14 melanoma = tested on: M14 melanoma
MCF7 breast = tested on: MCF7 breast
SK-MEL-5 melanoma = tested on: SK-MEL-5 melanoma
SNB-19 CNS = tested on: SNB-19 CNS
SW-620 colon = tested on: SW-620 colon

Compound | TGI (ACHN renal) [µM] | TGI (DU-145 prostate) [µM] | TGI (HCT-116 colon) [µM] | TGI (HL-60(TB) leukemia) [µM] | TGI (HS 578T breast) [µM] | TGI (M14 melanoma) [µM] | TGI (MCF7 breast) [µM] | TGI (SK-MEL-5 melanoma) [µM] | TGI (SNB-19 CNS) [µM] | TGI (SW-620 colon) [µM] | GI50 (ACHN renal) [µM] | GI50 (DU-145 prostate) [µM] | GI50 (HCT-116 colon) [µM] | GI50 (HL-60(TB) leukemia) [µM] | GI50 (HS 578T breast) [µM] | GI50 (M14 melanoma) [µM] | GI50 (MCF7 breast) [µM] | GI50 (SK-MEL-5 melanoma) [µM] | GI50 (SNB-19 CNS) [µM] | GI50 (SW-620 colon) [µM]
COc1ccc2c(c1)CCN1CCc3ccccc3CC21 (stereo not given) | > 100 | > 100 | > 100 | 68 | > 100 | 36.6 | > 100 | 30.2 | > 100 | > 100 |  |  |  |  |  |  |  |  |  | 
Cc1cc(NCc2ccccc2)c2ccccc2[n+]1CCCCCCCCCC[n+]1c(C)cc(NCc2ccccc2)c2ccccc21 | 2.92 | 10.9 | 1.45 | 1.19 | 11.6 | 3.22 | 1.91 | 0.638 | > 100 | 4.31 |  |  |  |  |  |  |  |  |  | 
CN(C)c1ccc(C2SCC(=O)N2c2ccc(Oc3ccc(Cl)cc3)c(Cl)c2)cc1 (stereo not given) | > 100 | 57.2 | 32.7 | 58.7 | 40.4 | 69 | 89.3 | 36.8 | 54.8 | > 100 |  |  |  |  |  |  |  |  |  | 
COc1ccc(-c2nn(-c3ccc(NC(=O)Nc4cc(C(F)(F)F)cc(C(F)(F)F)c4)cc3)cc2-c2ccncc2)cc1Cl | 58.5 | > 100 | 3.52 | 6.58 | 6.76 | 4.4 | 9.72 | 4.34 | 27.3 | > 100 | 2.75 | 4.25 | 1.53 | 2.5 | 1.53 | 1.91 | 2.86 | 1.93 | 4 | 2.99
C=CC[C@]12C=C(OC)[C@@H](O)[C@](OC)(C(c3cc(OC)c4c(c3)OCO4)[C@H]1C)[C@H]2OC(C)=O (stereo not given in full) | > 100 | > 100 | > 100 | > 100 | > 100 | > 100 | > 100 | > 100 | > 100 | > 100 |  |  |  |  |  |  |  |  |  | 
Cn1c2ccccc2c(=NNc2cccc(C(=O)O)c2)c2ccccc21 | 35.5 | 47.8 | 28.2 | 33.5 | 64.7 | 39.1 | 11.7 | 28.9 | > 100 | 35.5 |  |  |  |  |  |  |  |  |  | 
CC(C)NC(=O)OCCN=c1c2ccccc2ccc2ccccc12 | > 100 | > 100 | > 100 | 43.9 | > 100 | > 100 | > 100 | 35.8 | > 100 | > 100 |  |  |  |  |  |  |  |  |  | 
CC(C)(Cl)C(Br)CCC(=CCCl)CBr (mixture of isomers) | 7.85 | 10.7 | 3.67 | 2.6 | 16.4 | 4.05 | 2.62 | 11.9 | 6.87 | 4.43 |  |  |  |  |  |  |  |  |  | 
O=C(O)/C=c1/c2ccccc2n2nc3ccccc3c12 | 66.1 | > 100 | 90.7 | 67.1 | 78.8 | > 100 | > 100 | 30.4 | 87.3 | > 100 |  |  |  |  |  |  |  |  |  | 
O=C(O)c1ccc(OCc2nc3cc(C(F)(F)F)ccc3nc2-c2ccccc2)cc1 | 67.6 | > 100 | > 100 | > 100 | > 100 | > 100 | > 100 | > 100 | > 100 | > 100 |  |  |  |  |  |  |  |  |  | 
Nc1ccc(S2(c3ccc(N)cc3)C=C(c3ccccc3)C(c3ccccc3)=C2)cc1 | > 92.5 | > 90.3 | > 100 | > 100 | > 100 | > 100 | > 100 | > 100 | > 100 | > 100 |  |  |  |  |  |  |  |  |  | 
Cn1c(COC(=O)Nc2ccccc2)c(COC(=O)Nc2ccccc2)c2ccc3cc(Cl)c(Cl)cc3c21 | 29 | 31 | 38.5 | 10.4 | 29 | 19.6 | 10.6 | 16.1 | > 75 | > 75 |  |  |  |  |  |  |  |  |  | 
C=C1CN2CC(=C)CN(C1)CS(=O)(=O)N1CC(=C)CN(CC(=C)C1)S(=O)(=O)N1CC(=C)CN(CC(=C)C1)S(=O)(=O)C2 | > 100 | > 100 | > 100 | > 100 | 86.1 | > 100 | > 100 | 48 | > 100 | > 100 |  |  |  |  |  |  |  |  |  | 
COc1ccc(C2OC(c3ccncc3)=NN2C)cc1OC (stereo not given) | > 100 | > 100 | > 100 | > 100 | > 100 | > 100 | > 100 | > 100 | > 100 | > 100 |  |  |  |  |  |  |  |  |  | 
CCCCN=C(c1ccccc1)N1CCOCC1 | > 100 | > 100 | > 100 | > 100 | > 100 | > 100 | > 100 | > 100 | > 100 | > 100 |  |  |  |  |  |  |  |  |  | 
CC(C)(C)C(=O)CC1=Nc2ccccc2SC1(O)CC(=O)C(C)(C)C (stereo not given) | 70.2 | > 100 | 53.7 | 80.2 | 71.7 | 81.9 | 61.2 | 62.7 | > 100 | > 100 |  |  |  |  |  |  |  |  |  | 
COC1C=COC2(C)Oc3c(C)c(O)c4c(O)c(c(C5SCCS5)c(O)c4c3C2=O)NC(=O)C(C)=C/C=C\C(C)C2OC(C)(C)OC(C2C)C(C)C(OC(C)=O)C1C (stereo not given) | 6.53 | 59.8 | > 100 | 17.4 | 63.3 | > 100 | 7.77 | 15.5 | > 100 | > 100 |  |  |  |  |  |  |  |  |  | 

Compound | TGI (ACHN renal) [µM] | TGI (DU-145 prostate) [µM] | TGI (HCT-116 colon) [µM] | TGI (HL-60(TB) leukemia) [µM] | TGI (HS 578T breast) [µM] | TGI (M14 melanoma) [µM] | TGI (MCF7 breast) [µM] | TGI (SK-MEL-5 melanoma) [µM] | TGI (SNB-19 CNS) [µM] | TGI (SW-620 colon) [µM] | GI50 (ACHN renal) [µM] | GI50 (DU-145 prostate) [µM] | GI50 (HCT-116 colon) [µM] | GI50 (HL-60(TB) leukemia) [µM] | GI50 (HS 578T breast) [µM] | GI50 (M14 melanoma) [µM] | GI50 (MCF7 breast) [µM] | GI50 (SK-MEL-5 melanoma) [µM] | GI50 (SNB-19 CNS) [µM] | GI50 (SW-620 colon) [µM]
C=C1C(=O)C=C[C@]2(C)CC[C@H]3C(=C)C(=O)O[C@@H]3[C@@H]12 | 9.59 | 5.13 | 0.483 | 14.4 | 48.8 | 3.96 | 13.3 | 5.93 | 87.6 | 5.34 |  |  |  |  |  |  |  |  |  | 
C#C[C@]1(O)CC[C@H]2[C@@H]3CCC4=C/C(=N/OC(=O)c5cccc6c(=O)c7ccccc7[nH]c56)CC[C@@H]4[C@H]3CC[C@@]21C | > 100 | > 100 | > 100 | 39.8 | > 100 | > 100 | > 100 | 45.8 | > 100 | > 100 |  |  |  |  |  |  |  |  |  | 
CCOC(=O)NC(Nc1cccc(C(F)(F)F)c1)(C(F)(F)F)C(F)(F)F | > 100 | > 100 | > 100 | > 100 | > 100 | > 100 | > 100 | > 100 | > 100 | > 100 |  |  |  |  |  |  |  |  |  | 
Cc1ccc(S(=O)(=O)NC(=O)N[C@@H](Cc2cnc[nH]2)C(=O)O)cc1 | > 100 | > 100 | > 100 | > 100 | > 100 | > 100 | > 100 | > 100 | > 100 | > 100 |  |  |  |  |  |  |  |  |  | 
CC(=O)[C@@]1(O)CC[C@H]2[C@@H]3C[C@H](C)C4=CC(=O)C=C[C@]4(C)[C@@]3(F)[C@@H](O)C[C@@]21C | > 100 | > 100 | > 100 | > 100 | > 100 | > 100 | > 100 | > 100 | > 100 | > 100 |  |  |  |  |  |  |  |  |  | 
CCNC(=O)Nc1cccc(NC(=O)NCC)n1 | > 100 | > 100 | > 100 | > 100 | > 100 | > 100 | > 100 | > 100 | > 100 | > 100 |  |  |  |  |  |  |  |  |  | 
CC(C)(C)OC(=O)NCCCNC1(c2cc3ccccc3s2)CCCCC1 | 33.6 | 32.2 | 24.8 | 28 | 45.7 | 25 | 30.6 | 27.3 | 27.2 | 40.9 |  |  |  |  |  |  |  |  |  | 
CC(C)=CCNc1ncnc2c1ncn2CCC#N | > 100 | > 100 | > 100 | > 100 | > 100 | > 100 | > 100 | > 100 | > 100 | > 100 |  |  |  |  |  |  |  |  |  | 
COc1ccc(NS(=O)(=O)c2ccc(NC(NC(=O)CC(C)C)(C(F)(F)F)C(F)(F)F)cc2)nn1 | > 100 | > 100 | > 100 | > 100 | > 100 | > 100 | > 100 | > 100 | > 100 | > 100 |  |  |  |  |  |  |  |  |  | 
CSc1ncnc2c1ncn2CCC#N | > 100 | > 100 | > 100 | > 100 | > 100 | > 100 | > 100 | > 100 | > 100 | > 100 |  |  |  |  |  |  |  |  |  | 
C=CCOc1ccc(C2C(C(=O)OCC)C(=O)CC(C)(O)C2C(=O)OCC)cc1OC (stereo not given) | > 100 | > 100 | > 100 | > 100 | > 100 | > 100 | > 100 | > 100 | > 100 | > 100 |  |  |  |  |  |  |  |  |  | 
CC(=O)O[C@H]1CC[C@@]2(C)C(=CC[C@H]3[C@@H]4C[C@H](N5CCOCC5)[C@H](OC(C)=O)[C@@]4(C)CC[C@@H]32)C1 | > 100 | > 100 | > 100 | > 100 | > 100 | > 100 | > 100 | > 100 | > 100 | > 100 |  |  |  |  |  |  |  |  |  | 
CC12CCC(O)CC1CCC1C2CCC2(C)C(C(=O)CC(O)C(F)(F)F)CCC12 (stereo not given) | > 100 | > 100 | > 100 | 47.5 | > 80 | > 100 | > 100 | > 100 | 69.6 | > 100 |  |  |  |  |  |  |  |  |  | 
[N-]=[N+]=NC1=C(c2ccccn2)C(=O)c2cccc3cccc1c23 | > 100 | > 100 | > 100 | > 100 | > 100 | > 100 | > 100 | 22.1 | > 100 | > 100 |  |  |  |  |  |  |  |  |  | 
COc1ccc2c(cnc3c4cc(OC)c(OC)cc4ccc23)c1 | > 100 | > 100 | > 100 | > 100 | > 100 | > 100 | > 100 | > 100 | > 100 | > 100 |  |  |  |  |  |  |  |  |  | 
Cc1nc2sc3ccccc3n2c(=O)c1N=Nc1ccc(Cl)cc1 | > 100 | > 100 | > 100 | > 100 | > 100 | > 100 | > 100 | > 100 | > 100 | > 100 |  |  |  |  |  |  |  |  |  | 
